Measured values reported in patent publication US20110027785A1, “METHOD FOR DETERMINING SUSCEPTIBILITY OF INDIVIDUALS TO POLYPHENOLS” (CONOPCO, INC., D/B/A UNILEVER, priority 2009, published 2011).

System: male participants
Experiment: Diastolic blood pressure pre- and post-treatment, 8 week EGCG study stratified by COMT genotype
Assay type: in vivo, human
Conditions: 800 mg/day EGCG, 8 weeks
Excerpt: This was a double blind, single centre, randomised and parallel design study. A total of 95 male participants were recruited on to the study using the following criteria: • healthy (no significant history or current disease or medication) • non-diabetic • non-smokers • aged 40-65 years • Body Mass Index >28 <38 The study population were randomly assigned to one of two treatment groups. Each group was balanced for age and insulin resistance (homeostatic model of insulin resistance HOMAir). HOMAir was measured from mean fasting plasma glucose values as described by Mathews et al, Diabetologia (1985), 28, 412-419. 75 subjects consented to genotype analysis for the COMT polymorphism rs4680. The active treatment was 800 mg/day EGCG and the placebo treatment 800 mg/day lactose. Treatments were administered twice daily with food for 8 weeks, one 400 mg capsule in the morning and one 400 mg capsule in the evening. The diastolic blood pressure was measured pre- and post-treatment. During the three days before pre- and post-treatment study visits, participants refrained from exercise, alcohol and ate their normal diet which consisted of at least 150 g carbohydrates. Blood pressure was measured manually on the upper arm using a sphygmomanometer (UA-787, A and D Medical). Three measurements were taken at 5 minute intervals whilst participants rested in a semi-recumbent position and with participants rested for at least 5 minutes before the first measurement. All three measurements were used to derive mean blood pressure values. Non-smoking status and alcohol abstinence were verified using Micro CO meter (Micro Medical Ltd) and AlcoMate Pro (AK Solutions) monitors, respectively. All equipment was calibrated before use. The data was stratified based on the derived COMT genotype and analysed. For each treatment group and genotype subset the mean and standard deviation for the change from baseline to endpoint was calculated. Paired t-tests were used to assess whether the change from baseline was statistically significant (p<0.05).

O=C(O[C@@H]1Cc2c(O)cc(O)cc2O[C@@H]1c1cc(O)c(O)c(O)c1)c1cc(O)c(O)c(O)c1 [EGCG, epigallocatechin gallate]
diastolic blood pressure, change compared to baseline (AA (low activity) COMT genotype, paired t-test p=0.036): Statistically significant reductions
LSMean change from baseline in diastolic blood pressure, controlled for baseline (AA COMT genotype, p=0.044): statistically significant reduction
diastolic blood pressure, change compared to baseline (AG (intermediate activity) COMT genotype, paired t-test p=0.006): Statistically significant reductions
LSMean change from baseline in diastolic blood pressure, controlled for baseline (AG COMT genotype, p=0.012): statistically significant reduction
diastolic blood pressure, change compared to baseline (GG (high activity) COMT genotype, paired t-test p=0.647): not statistically significant
LSMean change from baseline in diastolic blood pressure, controlled for baseline (GG COMT genotype): not the GG group
